Assay results published in ChEMBL document CHEMBL3297690, “Discovery and development of Janus kinase (JAK) inhibitors for inflammatory diseases” (J Med Chem, 2014).

Columns and labels:
[1] = target: T1, Tyrosine-protein kinase JAK2 (Homo sapiens, UniProt O60674); format: cell-based, Blood, CD34+ cell
[2] = target: T1, Tyrosine-protein kinase JAK2
[3] = target: T2, Tyrosine-protein kinase JAK3 (Mus musculus, UniProt Q62137); format: cell-based
T2 sequence (Q62137 whole entry): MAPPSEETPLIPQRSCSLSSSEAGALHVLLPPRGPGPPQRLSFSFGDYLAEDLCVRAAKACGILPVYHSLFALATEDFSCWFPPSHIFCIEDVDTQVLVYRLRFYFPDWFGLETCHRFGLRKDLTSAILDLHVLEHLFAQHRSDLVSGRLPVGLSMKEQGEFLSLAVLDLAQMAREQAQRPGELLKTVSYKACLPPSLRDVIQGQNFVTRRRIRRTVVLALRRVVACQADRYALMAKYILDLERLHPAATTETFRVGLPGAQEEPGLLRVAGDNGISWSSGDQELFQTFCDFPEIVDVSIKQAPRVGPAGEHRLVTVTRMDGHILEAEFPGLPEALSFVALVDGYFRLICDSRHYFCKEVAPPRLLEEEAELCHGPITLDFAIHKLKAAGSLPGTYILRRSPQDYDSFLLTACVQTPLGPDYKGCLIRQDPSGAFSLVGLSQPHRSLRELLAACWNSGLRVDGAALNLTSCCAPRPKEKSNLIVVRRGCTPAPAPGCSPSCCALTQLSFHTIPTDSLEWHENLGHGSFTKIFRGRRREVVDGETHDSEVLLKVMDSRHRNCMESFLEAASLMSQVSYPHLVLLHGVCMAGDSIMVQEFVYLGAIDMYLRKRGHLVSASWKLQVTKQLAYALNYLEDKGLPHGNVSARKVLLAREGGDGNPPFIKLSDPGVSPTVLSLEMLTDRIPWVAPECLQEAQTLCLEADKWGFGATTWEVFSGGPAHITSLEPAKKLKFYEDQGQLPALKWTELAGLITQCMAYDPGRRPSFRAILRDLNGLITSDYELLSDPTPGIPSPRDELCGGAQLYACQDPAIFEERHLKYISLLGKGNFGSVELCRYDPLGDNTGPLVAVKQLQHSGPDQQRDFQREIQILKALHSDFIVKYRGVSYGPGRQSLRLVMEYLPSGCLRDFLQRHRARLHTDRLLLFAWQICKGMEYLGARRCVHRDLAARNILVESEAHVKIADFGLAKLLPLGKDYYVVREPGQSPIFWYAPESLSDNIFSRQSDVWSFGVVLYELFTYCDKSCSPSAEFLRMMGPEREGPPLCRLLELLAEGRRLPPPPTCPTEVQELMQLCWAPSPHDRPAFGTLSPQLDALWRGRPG

[4] = target: T1, Tyrosine-protein kinase JAK2; remark: listed apart in the source
[5] = target: T3, Tyrosine-protein kinase JAK1 (Homo sapiens, UniProt P23458)
T3 sequence (P23458 whole entry): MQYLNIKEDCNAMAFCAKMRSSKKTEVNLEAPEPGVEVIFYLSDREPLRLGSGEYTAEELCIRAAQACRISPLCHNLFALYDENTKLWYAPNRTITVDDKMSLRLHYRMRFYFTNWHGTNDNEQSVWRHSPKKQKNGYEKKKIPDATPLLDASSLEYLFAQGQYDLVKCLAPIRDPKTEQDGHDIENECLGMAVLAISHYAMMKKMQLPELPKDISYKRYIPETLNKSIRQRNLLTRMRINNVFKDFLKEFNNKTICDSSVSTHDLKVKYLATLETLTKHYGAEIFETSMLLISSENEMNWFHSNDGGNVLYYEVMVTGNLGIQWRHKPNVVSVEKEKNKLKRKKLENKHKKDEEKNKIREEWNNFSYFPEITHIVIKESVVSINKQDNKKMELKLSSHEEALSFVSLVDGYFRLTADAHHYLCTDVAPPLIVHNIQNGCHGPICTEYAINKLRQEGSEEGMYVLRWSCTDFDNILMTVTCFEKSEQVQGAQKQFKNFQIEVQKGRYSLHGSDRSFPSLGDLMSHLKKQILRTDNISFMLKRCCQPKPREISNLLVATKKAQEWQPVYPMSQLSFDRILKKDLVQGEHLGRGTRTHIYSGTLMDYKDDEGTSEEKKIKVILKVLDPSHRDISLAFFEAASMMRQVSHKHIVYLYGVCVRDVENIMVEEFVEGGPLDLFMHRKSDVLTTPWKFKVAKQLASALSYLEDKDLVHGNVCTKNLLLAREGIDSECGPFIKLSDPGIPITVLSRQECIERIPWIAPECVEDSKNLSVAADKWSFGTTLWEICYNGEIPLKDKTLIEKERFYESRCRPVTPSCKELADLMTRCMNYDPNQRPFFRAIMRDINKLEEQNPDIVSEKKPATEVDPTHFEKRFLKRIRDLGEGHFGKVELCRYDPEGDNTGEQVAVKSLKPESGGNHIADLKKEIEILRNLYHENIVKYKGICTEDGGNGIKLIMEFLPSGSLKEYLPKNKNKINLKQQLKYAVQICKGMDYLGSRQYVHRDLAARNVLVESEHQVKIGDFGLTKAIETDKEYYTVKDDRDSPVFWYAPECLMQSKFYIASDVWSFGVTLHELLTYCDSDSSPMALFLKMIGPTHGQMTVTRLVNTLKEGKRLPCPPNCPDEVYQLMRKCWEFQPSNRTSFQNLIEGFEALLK

[6] = target: T3, Tyrosine-protein kinase JAK1; format: cell-based

T1 sequence (O60674 whole entry): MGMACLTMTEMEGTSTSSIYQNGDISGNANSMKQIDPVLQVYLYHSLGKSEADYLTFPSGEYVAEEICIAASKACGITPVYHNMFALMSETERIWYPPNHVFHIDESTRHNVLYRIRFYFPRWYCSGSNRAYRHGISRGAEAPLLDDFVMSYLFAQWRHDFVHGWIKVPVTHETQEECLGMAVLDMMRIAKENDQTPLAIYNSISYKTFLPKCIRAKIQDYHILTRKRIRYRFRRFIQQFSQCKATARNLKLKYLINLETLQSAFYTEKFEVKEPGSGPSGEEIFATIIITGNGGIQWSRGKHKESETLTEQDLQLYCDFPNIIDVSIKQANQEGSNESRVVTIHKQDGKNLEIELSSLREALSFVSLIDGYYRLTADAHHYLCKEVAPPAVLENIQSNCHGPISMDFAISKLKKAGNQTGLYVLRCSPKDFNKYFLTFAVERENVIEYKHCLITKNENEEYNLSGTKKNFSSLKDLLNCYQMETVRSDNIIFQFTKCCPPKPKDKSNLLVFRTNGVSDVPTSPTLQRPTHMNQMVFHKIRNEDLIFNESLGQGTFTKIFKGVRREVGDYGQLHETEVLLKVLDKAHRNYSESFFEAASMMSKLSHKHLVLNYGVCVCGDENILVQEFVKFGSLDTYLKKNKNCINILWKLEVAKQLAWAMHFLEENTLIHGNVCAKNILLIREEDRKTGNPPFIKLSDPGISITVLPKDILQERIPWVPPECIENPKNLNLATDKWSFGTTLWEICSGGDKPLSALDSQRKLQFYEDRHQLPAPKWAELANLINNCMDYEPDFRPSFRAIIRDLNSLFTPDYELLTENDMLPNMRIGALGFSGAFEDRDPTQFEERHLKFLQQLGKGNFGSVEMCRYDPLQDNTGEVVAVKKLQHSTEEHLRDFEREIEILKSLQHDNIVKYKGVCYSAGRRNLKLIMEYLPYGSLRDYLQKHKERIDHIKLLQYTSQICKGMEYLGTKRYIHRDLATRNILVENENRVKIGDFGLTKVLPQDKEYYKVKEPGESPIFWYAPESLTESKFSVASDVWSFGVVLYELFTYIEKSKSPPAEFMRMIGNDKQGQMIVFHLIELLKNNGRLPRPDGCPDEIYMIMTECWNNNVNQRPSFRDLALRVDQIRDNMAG

CC[C@@](C)(Nc1ccnc(-c2c[nH]c3ncccc23)n1)C(=O)NCC(F)(F)F [DECERNOTINIB]
IC50 [1]: > 10 µM | IC50 [2]: 24 nM | IC50 [3]: 50 nM | IC50 [4]: 619 nM | Ki [4]: 13 nM | IC50 [5]: 13.2 nM | IC50 [6]: 50 nM
